What all share (assay type): functional, cell-based
Series [1] has as its target Multidrug resistance protein 1a (Rattus norvegicus) (UniProt Q6PSM0). In words: TP_TRANSPORTER: increase in Doxorubicin intracellular accumulation (Doxorubicin: 10 ug/mL, RU486: 10 uM) in RHC1 cells.
Series [2] deals with ATP-dependent translocase ABCB1 (Homo sapiens, UniProt P08183). In words: TP_TRANSPORTER: increase in Doxorubicin intracellular accumulation (Doxorubicin: 10 ug/mL, RU486: 10 uM) in K562 R7 cells. To be noted: k562/r7, 10 µM.
The target in series [3] is Multidrug resistance protein 1a (Rattus norvegicus) (UniProt Q6PSM0). In words: TP_TRANSPORTER: increase in Doxorubicin intracellular accumulation (Doxorubicin: 10 ug/mL, Progesterone: 10 uM) in RHC1 cells.
Sequence of Multidrug resistance protein 1a (Rattus norvegicus) (Q6PSM0 as listed by the source): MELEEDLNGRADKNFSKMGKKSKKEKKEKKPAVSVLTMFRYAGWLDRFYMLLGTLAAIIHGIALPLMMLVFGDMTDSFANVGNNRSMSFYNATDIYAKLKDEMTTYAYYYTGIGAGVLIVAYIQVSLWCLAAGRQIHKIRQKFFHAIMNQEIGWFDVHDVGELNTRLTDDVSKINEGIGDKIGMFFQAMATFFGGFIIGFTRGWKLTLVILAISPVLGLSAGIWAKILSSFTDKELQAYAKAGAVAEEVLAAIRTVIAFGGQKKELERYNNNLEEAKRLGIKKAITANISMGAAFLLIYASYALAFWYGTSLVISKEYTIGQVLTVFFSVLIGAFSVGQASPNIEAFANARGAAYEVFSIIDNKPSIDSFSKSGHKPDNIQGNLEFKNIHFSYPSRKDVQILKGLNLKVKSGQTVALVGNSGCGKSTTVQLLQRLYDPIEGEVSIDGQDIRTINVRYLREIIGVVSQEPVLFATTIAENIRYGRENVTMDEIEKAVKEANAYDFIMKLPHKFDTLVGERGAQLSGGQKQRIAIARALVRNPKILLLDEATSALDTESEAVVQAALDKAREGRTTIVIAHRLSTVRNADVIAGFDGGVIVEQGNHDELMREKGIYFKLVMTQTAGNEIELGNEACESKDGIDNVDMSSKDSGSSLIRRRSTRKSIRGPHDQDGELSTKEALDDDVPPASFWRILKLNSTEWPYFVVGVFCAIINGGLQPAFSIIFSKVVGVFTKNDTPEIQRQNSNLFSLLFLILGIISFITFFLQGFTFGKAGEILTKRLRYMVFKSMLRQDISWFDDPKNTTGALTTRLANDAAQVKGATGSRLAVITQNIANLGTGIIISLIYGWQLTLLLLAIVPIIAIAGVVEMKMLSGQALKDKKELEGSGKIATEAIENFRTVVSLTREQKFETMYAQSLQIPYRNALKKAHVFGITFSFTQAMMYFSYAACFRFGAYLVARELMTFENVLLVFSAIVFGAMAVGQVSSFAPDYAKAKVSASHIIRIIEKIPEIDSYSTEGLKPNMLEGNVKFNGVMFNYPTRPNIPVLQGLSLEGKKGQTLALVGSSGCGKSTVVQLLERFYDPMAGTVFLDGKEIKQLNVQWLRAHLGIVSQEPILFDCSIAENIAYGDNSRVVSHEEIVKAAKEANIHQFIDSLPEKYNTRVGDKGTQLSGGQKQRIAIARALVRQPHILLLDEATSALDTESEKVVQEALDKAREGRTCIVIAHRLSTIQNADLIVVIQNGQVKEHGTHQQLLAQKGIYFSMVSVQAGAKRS

Sequence of ATP-dependent translocase ABCB1 (P08183 whole entry): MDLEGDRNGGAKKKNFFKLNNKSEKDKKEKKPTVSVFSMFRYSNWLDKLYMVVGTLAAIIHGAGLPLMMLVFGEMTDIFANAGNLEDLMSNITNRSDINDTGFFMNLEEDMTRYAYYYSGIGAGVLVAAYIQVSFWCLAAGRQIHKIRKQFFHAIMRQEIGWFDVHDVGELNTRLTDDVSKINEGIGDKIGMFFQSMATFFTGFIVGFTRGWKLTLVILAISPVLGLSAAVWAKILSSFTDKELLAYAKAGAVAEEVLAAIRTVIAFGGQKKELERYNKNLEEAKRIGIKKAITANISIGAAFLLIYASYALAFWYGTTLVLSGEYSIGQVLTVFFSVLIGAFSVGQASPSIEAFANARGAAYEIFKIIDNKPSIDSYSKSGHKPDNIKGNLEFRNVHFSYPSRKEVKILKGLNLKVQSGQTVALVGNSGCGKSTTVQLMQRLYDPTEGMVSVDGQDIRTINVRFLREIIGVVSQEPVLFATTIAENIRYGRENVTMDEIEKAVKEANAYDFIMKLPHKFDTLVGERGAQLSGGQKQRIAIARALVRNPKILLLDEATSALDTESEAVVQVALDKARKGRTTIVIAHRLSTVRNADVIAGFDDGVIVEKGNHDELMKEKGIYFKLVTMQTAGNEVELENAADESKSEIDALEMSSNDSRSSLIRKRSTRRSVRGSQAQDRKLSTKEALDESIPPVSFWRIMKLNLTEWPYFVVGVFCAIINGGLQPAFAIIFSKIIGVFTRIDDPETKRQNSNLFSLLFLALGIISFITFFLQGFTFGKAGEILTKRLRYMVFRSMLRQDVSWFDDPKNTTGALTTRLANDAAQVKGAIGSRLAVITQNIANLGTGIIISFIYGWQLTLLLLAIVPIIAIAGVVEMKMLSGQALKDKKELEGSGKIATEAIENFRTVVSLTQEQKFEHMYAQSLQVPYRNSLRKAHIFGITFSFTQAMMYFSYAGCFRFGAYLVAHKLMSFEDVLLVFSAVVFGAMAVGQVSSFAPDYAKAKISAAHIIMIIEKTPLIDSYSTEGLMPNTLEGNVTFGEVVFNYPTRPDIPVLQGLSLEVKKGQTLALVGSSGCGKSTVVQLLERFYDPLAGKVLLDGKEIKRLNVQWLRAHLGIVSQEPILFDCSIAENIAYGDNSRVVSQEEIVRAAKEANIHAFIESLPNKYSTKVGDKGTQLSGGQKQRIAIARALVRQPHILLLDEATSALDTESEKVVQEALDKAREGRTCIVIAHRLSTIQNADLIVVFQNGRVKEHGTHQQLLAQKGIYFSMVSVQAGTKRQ

With `CC#C[C@]1(O)CC[C@H]2[C@@H]3CCC4=CC(=O)CCC4=C3[C@@H](c3ccc(N(C)C)cc3)C[C@@]21C` [MIFEPRISTONE], the Activity entry in series [1] and in series [2] was “inhibitor [+]” throughout. In the case of `CC(=O)[C@H]1CC[C@H]2[C@@H]3CCC4=CC(=O)CC[C@]4(C)[C@H]3CC[C@]12C`, the Activity entry in series [3] was “inhibitor [+]”.

The record behind these values is ChEMBL document CHEMBL2073780, “The antiprogestatin drug RU 486 potentiates doxorubicin cytotoxicity in multidrug resistant cells through inhibition of P-glycoprotein function” (FEBS Lett, 1994).
